US10815534B2, “Methods and materials for treating estrogen receptor positive breast cancer” (Mayo Foundation for Medical Education and Research, priority 2016, dated 2020)

Key:
[1] = test system: letrozole resistant cells; assay: Sensitization of letrozole resistant cells by overexpression of CSMD1; type: cell-based; conditions: letrozole resistant cells overexpressing CSMD1
[2] = test system: ERα+ breast cancer cells; assay: Sensitization of ERα+ breast cancer cells by overexpression of CSMD1; type: cell-based; conditions: ERα+ breast cancer cells overexpressing CSMD1
[3] = test system: human lymphoblastoid cells; assay: Sensitivity of human lymphoblastoid cell lines selected by rs6990851 genotype (AA, AG, GG) to aromatase inhibitors; type: cell-based; conditions: rs6990851 GG versus AA and AG lymphoblastoid cells
[4] = molecular target: T1, ERα (Homo sapiens, UniProt P03372); conditions: FIG. 7, ERα/GADPH fold change
T1 sequence (P03372 1-595): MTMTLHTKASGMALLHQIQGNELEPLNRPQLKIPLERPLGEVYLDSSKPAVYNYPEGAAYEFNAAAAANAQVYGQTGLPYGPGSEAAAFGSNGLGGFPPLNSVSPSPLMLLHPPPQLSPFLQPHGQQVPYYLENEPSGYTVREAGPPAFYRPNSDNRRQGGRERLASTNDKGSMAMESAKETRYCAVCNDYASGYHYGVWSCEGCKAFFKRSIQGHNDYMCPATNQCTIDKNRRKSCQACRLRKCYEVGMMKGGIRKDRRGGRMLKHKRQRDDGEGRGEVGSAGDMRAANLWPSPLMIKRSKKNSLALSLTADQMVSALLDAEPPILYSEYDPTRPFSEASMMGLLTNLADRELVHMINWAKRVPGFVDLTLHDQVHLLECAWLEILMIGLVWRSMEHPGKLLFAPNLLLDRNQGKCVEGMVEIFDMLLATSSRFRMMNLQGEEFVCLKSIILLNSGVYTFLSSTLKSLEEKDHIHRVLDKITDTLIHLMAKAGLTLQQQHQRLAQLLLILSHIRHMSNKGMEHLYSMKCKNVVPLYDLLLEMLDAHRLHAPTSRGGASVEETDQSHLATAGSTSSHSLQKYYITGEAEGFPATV

[5] = molecular target: T1, ERα; conditions: 0-40 μM, traces above the background

SMILES | sensitization by CSMD1 overexpression [1] | sensitization by CSMD1 overexpression [2] | sensitivity of homozygous GG variant cells to treatment [3] | ERα degradation [4] | direct binding to ERα (SPR sensograms) [5]
CC(C)(C#N)c1cc(Cn2cncn2)cc(C(C)(C)C#N)c1 [anastrozole] | sensitized | sensitized | more sensitive |  | 
N#Cc1ccc(C(c2ccc(C#N)cc2)n2cncn2)cc1 [letrozole] | not |  | not observed | not | No interactions were observed
